# Results as given in PMC5674027 (Scientific Reports, 2017).
# Tests used:
# [1] = biological target: interaction between claudin-4 and C-CPE (Homo sapiens, UniProt O14493); assay: biochemical; type: binding
# [2] = biological target: recombinant human claudin-4 protein (Homo sapiens, UniProt O14493); assay: biochemical; type: binding
# C-CPE = type: binding, Clostridium perfringens
# [3] = system: claudin-4 (HT1080/CLDN4 cells); type: cell-based
# [4] = system: claudin-3 (HT1080/CLDN3 cells); type: cell-based
# Caco-2 cell monolayer = type: cell-based, human
# Experimental: Caco-2 cells were allowed to differentiate for 10 to 14 days on Transwell filters (diameter, 6.5 mm; pore size, 0.4 µm; Corning, Corning, MA, USA) before their use in TER and paracellular flux assays. Caco-2 cell monolayers had TER values of 600–800 Ω•cm^2. TER values were measured by using a Millicell-ERS epithelial volt–ohm meter (Millipore Corporation, Billerica, MA, USA). For the paracellular tracer flux assay, 100 µM dialysed FD-4 was added to the medium in the upper chamber. After 1 h of incubation, the medium was collected from the bottom chamber, and the amount of FD-4 was measured with a TriStar LB 941 microplate reader (Berthold Technologies).
# Caco-2 cells = type: cell-based, human; details: 1–100 µM, 24 h; n = 3
# Experimental: For analysis of thiostrepton-induced cytotoxicity on Caco-2 cells, a lactate dehydrogenase (LDH) release assay was performed according to the manufacturer’s instructions. After being treated with thiostrepton for 24 h, the level of LDH released into the culture medium was analysed. Treatment with 0.2% Tween-20 was used as a 100% lysis control. Absorbance was measured at a wavelength of 570 nm by using a TriStar LB 941 microplate reader (Berthold Technologies).
# claudin-1 [5] = type: cell-based, human; details: n = 3
# claudin-3 = type: cell-based, human; details: n = 3
# claudin-4 [6] = type: cell-based, human; details: n = 3
# CLDN1 = type: cell-based, human; details: n = 3
# CLDN3 = type: cell-based, human; details: n = 3
# CLDN4 = type: cell-based, human; details: n = 3
# claudin-1 [7] = type: cell-based, human; details: 100 µM, 24 h
# claudin-4 [8] = type: cell-based, human; details: 100 µM, 24 h
# occludin = type: cell-based, human; details: 100 µM, 24 h
# ZO-1 = type: cell-based, human; details: 100 µM, 24 h
# Caco-2 cell monolayers = type: cell-based, human; details: 100 µM thiostrepton, apical sulfo-NHS-SS-biotin (606.7 Da) 10 min; Caco-2 monolayer
# Experimental: Figure 5 Thiostrepton effect on paracellular tracer permeability. Caco-2 cell monolayers were treated with 100 µM thiostrepton or left untreated (control) and then apically incubated with sulfo-NHS-SS-biotin (606.7 Da; red) and counterstained with anti-ZO-1 antibody (green; TJ stain) and DAPI (blue; nuclear stain). […] Bar = 10 µm.
# Localisation of claudins-1 and -4, occludin and ZO-1 on Caco-2 cells was assessed by immunofluorescence microscopy. Caco-2 cells were seeded on Transwell filters (diameter, 12 mm; pore size, 0.4 µm; Corning). After treatment with thiostrepton (100 µM) or no treatment for 24 h, the Caco-2 cells were fixed with methanol–acetone (1:1 v/v) for 5 min and then permeabilised with 0.2% Triton X-100 in PBS for 10 min. After non-specific binding had been blocked by incubation with 1% BSA in TBS buffer (20 mM Tris-HCl, pH 7.4, 40 mM NaCl) containing 0.05% Tween-20 (T-TBS) for 1 h, the cells were incubated with anti-claudin-1, -claudin-4, -occludin and -ZO-1 antibodies in 1% BSA in T-TBS for 1 h. After incubation of the cells with fluorescent secondary antibodies for 1 h, the immunofluorescence images were observed under an immunofluorescence microscope (Keyence, Tokyo, Japan). For visualisation of biotin passing through the TJ, Caco-2 cells treated with 100 µM thiostrepton or left untreated were apically labelled with sulfo-NHS-SS-biotin (606.7 Da) for 10 min. […]
# rat jejunum [9] = type: in vivo; details: n = 4
# rat jejunum [10] = details: in vivo
# [11] = system: various human cancer cell lines; details: cited from earlier work
# melanoma cells = details: cited from earlier work
# breast cancer cells = details: cited from earlier work
# interaction between claudin-4 and C-CPE, sequence (O14493 whole entry, looked up): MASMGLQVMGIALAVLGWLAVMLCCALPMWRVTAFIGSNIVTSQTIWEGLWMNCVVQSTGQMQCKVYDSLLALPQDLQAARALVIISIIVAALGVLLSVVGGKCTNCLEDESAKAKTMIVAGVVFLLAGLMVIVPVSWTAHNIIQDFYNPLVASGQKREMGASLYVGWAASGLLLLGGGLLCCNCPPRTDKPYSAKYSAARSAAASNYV
# recombinant human claudin-4 protein, sequence (O14493 whole entry): as the sequence (O14493 whole entry, looked up) above
structure (smiles),measurement,setting,value
C=C(NC(=O)C(=C)NC(=O)c1csc(C2=N[C@@H]3c4csc(n4)[C@H]4NC(=O)c5csc(n5)[C@H]([C@](C)(O)[C@@H](C)O)NC(=O)[C@H]5CSC(=N5)/C(=C/C)NC(=O)[C@H]([C@@H](C)O)NC(=O)c5csc(n5)[C@]3(CC2)NC(=O)[C@H](C)NC(=O)C(=C)NC(=O)[C@H](C)NC(=O)[C@H]([C@@H](C)CC)N[C@@H]2C=Cc3c([C@H](C)O)cc(nc3[C@H]2O)C(=O)O[C@@H]4C)n1)C(N)=O [Thiostrepton],IC50,[1],1020 nM
same,"TR-FRET (% of control), inhibition of TR-FRET signal by interaction between claudin-4 and C-CPE",[1],66.24 % of control
same,Kd,[2],6.62 µM
same,binding to C-CPE,C-CPE,did not bind to C-CPE
same,inhibition of C-CPE binding to claudin-4 on the cell membrane,[3],inhibited the binding of C-CPE to claudin-4 on the cell membrane
same,inhibition of C-CPE interaction with claudin-3,[4],"inhibited the interaction between C-CPE and claudin-3, but this effect was substantially weaker than that for claudin-4"
same,TER (%),"Caco-2 cell monolayer; 10 µM, 24 h, percentage of the TER value at 0 h",55.2%
same,"attenuation of barrier function of Caco-2 cells, comparison among hits","Caco-2 cell monolayer; among the hit compounds, Supplementary Figure 4, 10 µM, 24 h",greatest attenuation of the barrier function of Caco-2 cells
same,paracellular flux of FD-4,"Caco-2 cell monolayer; thiostrepton 1–100 µM, 24 h, Caco-2 apical to basal, 100 µM FD-4 1 h, fluorescence plate reader, n = 3",dose-dependent increase in the paracellular flux of FD-4
same,effect on TER value of Caco-2 cells,"Caco-2 cell monolayer; thiostrepton 1–100 µM, 12, 18, 24 h, then 24 h after medium change, n = 3",reversibly decreased the TER value of Caco-2 cells in a time- and dose-dependent manner
same,cytotoxicity to Caco-2 cells (LDH release),Caco-2 cells,not cytotoxic to Caco-2 cells in the concentration range of 1–100 µM
same,"claudin-1 protein, 1% Triton-X-insoluble fraction",claudin-1 [5],unchanged
same,"claudin-1 protein, 1% Triton-X-soluble fraction",claudin-1 [5],significantly decreased
same,"claudin-3 protein, 1% Triton-X-insoluble fraction",claudin-3,unchanged
same,"claudin-3 protein, 1% Triton-X-soluble fraction",claudin-3,significantly decreased
same,"claudin-4 protein, 1% Triton-X-insoluble fraction",claudin-4 [6],increased
same,"claudin-4 protein, 1% Triton-X-soluble fraction",claudin-4 [6],increased
same,claudin-1 mRNA level,CLDN1,significantly decreased
same,claudin-3 mRNA level,CLDN3,significantly decreased
same,claudin-4 mRNA level,CLDN4,increased
same,cellular localisation of claudin-1,claudin-1 [7],did not alter the cellular localisation
same,cellular localisation of claudin-4,claudin-4 [8],did not alter the cellular localisation
same,cellular localisation of occludin,occludin,did not alter the cellular localisation
same,cellular localisation of ZO-1,ZO-1,did not alter the cellular localisation
same,biotin permeation,Caco-2 cell monolayers,biotin signal was detected within the paracellular space
same,maximum plasma FD-4 concentration,rat jejunum [9],0.6 µg/mL
same,rat jejunal absorption of FD-4,rat jejunum [9],enhanced rat jejunal absorption of FD-4 in a dose-dependent manner
same,intestinal tissue toxicity (histochemical analysis),rat jejunum [10],no evidence of intestinal tissue toxicity
same,anti-tumour activity,[11],shows anti-tumour activity in various human cancer cell lines
same,effect on melanoma cells,melanoma cells,suppresses cell growth and induces apoptosis
same,effect on breast cancer cells,breast cancer cells,leads to cell-cycle arrest and cell death by down-regulating FOXM1 gene expression
